What all share (assay): CDKi biochemical assay (TR-FRET, phosphorylation of S780 on RB1 peptide)
One test concerns the target CDK2/CyclinE1 (Homo sapiens, UniProt P24941). Particulars: CDK2/CyclinE1 100 pM, 1 mM ATP, 60 min at 25° C. The protocol: (§1) Biochemical assays measured the inhibitory effects of compounds in this disclosure on the enzymatic activity of CDK enzyme in complex with Cyclin protein partner by phosphorylation of Ser-780 (S780) on retinoblastoma protein peptide (RB1) in the presence of 1 mM adenosime-5-triphosphate (ATP) and varying concentration of test compound in 20 mM 2-[4-(2-hydroxyethyl)paperazin-1-yl] ethanesulfonic acid (HEPES), pH 7.5, 10 mM MgCl2, 1 mM dithiothreitol (DTT), 0.01% bovine serum albumin (BSA), 0.005% Tween 20. Total Reaction volume of 10 μL proceeded for 60 minutes at room temperature (25° C.) and were quenched with 5 μL of 200 mM 2′,2″,2′″-(Ethane-1,2-diyldinitrilo)tetraacetic acid (EDTA) pH 8.0 before addition of 5 μL detection solution containing 100 nM fluorophore conjugate streptavidin allophycocyanin (SA-APC), 2 nM Europium labelled Anti-p-RB(S780)-K (Perkin Elmer, 64CUSKAY), 50 mM HEPES, pH 7.5, 400 mM potassium fluoride (KF), 0.1% BSA, and 0.01% Tween-20. Phosphorylation of S780 on RB1 peptide (His-MBP-RB1[773-924]-SEQ ID NO. 9) was detected by TR-FRET after 3 hour incubation with detection solution. Percent phosphorylation activity was plotted against log concentration of compound to generate an apparent ICSO. The following CDK enzyme in complex with different cyclin proteins and protein peptide substrate were used in these assays: • CDK1/CyclinB1, Avi-tag, 10 pM used in the assay • CDK2/CyclinE1, Avi-tag, 100 pM used in the assay • CDK4/cyclinD1, Avi-tag, 20 pM used in the assay • CDK6/cyclinD3, Avi-tag, 10 pM used in the assay • His-MBP-RB1[773-924], Avi-tag, 200 nM used in the assay
(§2) The avi-tag is a C-terminal fusion on the CDK1/2/4/6 sequence in each of these two-protein complexes. The known avi-tag sequence, […] (SEQ ID NO. 10), is a substrate for E. coli biotin ligase BirA, which covalently attaches a biotin molecule to the e-amino group of the lysine in that sequence. The avi-tag is attached with an 8 amino-acid linker sequence GGSGGGGS (SEQ ID NO. 11), resulting in the full C-terminal fusion
(§3) Recombinant proteins were generated as N-terminal fusions of 9× His tag—E. coli Maltose Binding Protein (MBP), with or without a C-terminal Avi-tag.^1 CDK2 and His-MBP-RB1[773-924]-c-avi were expressed in E. coli while the remainder were expressed in Sf21 insect cells. Genes were synthesized commercially (GeneArt and Twist Bioscience) using codon frequencies appropriate to the respective organisms and proprietary codon optimization strategies, and inserted into pET 24 (E. coli) or pDEST8 (insect) vectors already containing the 9× His-MBP tag using standard methods of PCR and Gibson Assembly.^2 E. coli expression was performed by auto-induction overnight at 18 or 21 C. For insect cell expression, bacmids and viruses were created,^3 then used to synchronously infect Sf21 insect cells with harvest at 40-48 hrs., per standard protocols.^4
(§4) For CDK2/Cyclin E and CDK1/Cyclin B, the CDK and Cyclin proteins were expressed separately, lysed by sonication and clarified by centrifugation. The fusion proteins were each separately purified by immobilized metal ion affinity chromatography (IMAC) (5 mL HisTrap, Cytiva) and Superdex 200 26/60 (Cytiva) size-exclusion and complexed in vitro (1-3 hrs incubation at room temperature) prior to tag cleavage by recombinant his-tagged Tobacco Etch Virus protease or his-tagged Human rhinovirus 3C protease, as appropriate. The cleaved complex is further purified by Superdex 75 26/60 (Cytiva) size-exclusion followed by reverse-IMAC, in which the complex is in the column flow-through and residual His-MBP and his-tagged proteases are retained. The final complex is concentrated as desired by centrifugal concentration (Amicon Ultra 10,000 Da MWCO 15 mL concentrators, Millipore).
For E. coli expressed CDK2 and His-MBP-RB1[773-924]-c-avi, the proteins were biotinylated in vitro after the first IMAC step.^1
(§5) For the is-MBP-RB1[773-924]-c-avi, the protein was lysed by sonication and clarified by centrifugation. […]

A further test concerns the target CDK1/CyclinB1 (Homo sapiens, UniProt P06493). Particulars: CDK1/CyclinB1 10 pM, 1 mM ATP, 60 min at 25° C. As to the method:
as §1, §2, §3, §4, §5

The next test has as its target CDK4/cyclinD1 (Homo sapiens, UniProt P11802). Particulars: CDK4/cyclinD1 20 pM, 1 mM ATP, 60 min at 25° C. As to the method:
as §1, §2, §3
(§6) For CDK4/Cyclin D1 and CDK6/Cyclin D3, the complexes were expressed by simultaneous co-infection of insect cells by three separate viruses including one expressing untagged E. coli BirA. The expression media is supplemented with 50 uM d-biotin. The resulting protein complexes purified similarly. After lysis and clarification, the complex is purified by IMAC, Superdex 200 26/60 size exclusion, tag cleavage by human rhinovirus 3C protease, Superdex 75 26/60 size exclusion and reverse IMAC. BirA is typically not retained on the first IMAC, and excess CDK or Cyclin monomer is separated on the Superdex 200 size exclusion. Cleaved His-MBP and remaining monomer are removed by the Superdex 75 size exclusion and the reverse IMAC step. Final concentration by centrifugal concentrators as described above.
as §5

A further test addresses CDK6/cyclinD3 (Homo sapiens, UniProt Q00534). Particulars: CDK6/cyclinD3 10 pM, 1 mM ATP, 60 min at 25° C. As to the method:
as §1, §2, §3, §6, §5

For the compound `O=C1N([C@@H]2CCC[C@@H](O)C2)c2nc(Nc3c[nH]nc3CO)ncc2C12CC2` [Example 6, 7′-((1R,3R)-3-hydroxycyclohexyl)-2′-((3-(hydroxymethyl)-1H-pyrazol-4-yl)amino)spiro[cyclopropane-1,5′-pyrrolo[2,3-d]pyrimidin]-6′(7′H)-one], the IC50 against CDK2/CyclinE1 is 32 nM; on CDK1/CyclinB1 it was 2940 nM; against CDK4/cyclinD1, 840 nM; against CDK6/cyclinD3, 2180 nM.
Taken in the same sequence, the figures for `O=C1N([C@@H]2CCC[C@@H](O)C2)c2nc(Nc3c[nH]nc3O[C@H]3CC3(F)F)ncc2C12CC2` [Example 69] were 6 nM, 800 nM, 2610 nM and 6030 nM.
Taken in the same sequence, the figures for `CC(=O)N1CC2(CC(COc3n[nH]cc3Nc3ncc4c(n3)N([C@@H]3CCC[C@@H](O)C3)C(=O)C43CC3)C2)C1` [Example 53, 2′-((3-((2-acetyl-2-azaspiro[3.3]heptan-6-yl)methoxy)-1H-pyrazol-4-yl)amino)-7′-((1R,3R)-3-hydroxycyclohexyl)spiro[cyclopropane-1,5′-pyrrolo[2,3-d]pyrimidin]-6′(7′H)-one] were 186 nM, at least 10000 nM, at least 10000 nM and at least 10000 nM.
Taken in the same sequence, the figures for `O=C1N([C@@H]2CCC[C@@H](O)C2)c2nc(Nc3c[nH]nc3-c3cccnc3)ncc2C12CC2` [Example 61, 7′-((1R,3R)-3-hydroxycyclohexyl)-2′-((3-(pyridin-3-yl)-1H-pyrazol-4-yl)amino)spiro[cyclopropane-1,5′-pyrrolo[2,3-d]pyrimidin]-6′(7′H)-one] were 46 nM, at least 10000 nM, 8650 nM and 9190 nM.
On to `O=C1N([C@@H]2CCC[C@@H](O)C2)c2nc(Nc3c[nH]nc3OC3CCC3)ncc2C12CC2` [Example 40, 2′-((3-cyclobutoxy-1H-pyrazol-4-yl)amino)-7′-((1R,3R)-3-hydroxycyclohexyl)spiro[cyclopropane-1,5′-pyrrolo[2,3-d]pyrimidin]-6′(7′H)-one], for which the IC50 against CDK2/CyclinE1 is 26 nM; at CDK1/CyclinB1, 2890 nM; on CDK4/cyclinD1 it was at least 10000 nM; against CDK6/cyclinD3, at least 10000 nM.
Regarding `O=C1N([C@@H]2CCC[C@@H](O)C2)c2nc(Nc3c[nH]nc3-c3cnn4c3CCCC4)ncc2C12CC2` [Example 73, 7′-((1R,3R)-3-hydroxycyclohexyl)-2′-((3-(4,5,6,7-tetrahydropyrazolo[1,5-a]pyridin-3-yl)-1H-pyrazol-4-yl)amino)spiro[cyclopropane-1,5′-pyrrolo[2,3-d]pyrimidin]-6′(7′H)-one], the IC50 on CDK2/CyclinE1 is 49 nM; on CDK1/CyclinB1 it was at least 10000 nM; against CDK4/cyclinD1 it was at least 10000 nM; against CDK6/cyclinD3, at least 10000 nM.
For `O=C1N([C@@H]2CCCC[C@@H](O)C2)c2nc(Nc3c[nH]nc3Cl)ncc2C12CC2` [Example 19, 2′-((3-chloro-1H-pyrazol-4-yl)amino)-7′-((1R,3R)-3-hydroxycycloheptyl)spiro[cyclopropane-1,5′-pyrrolo[2,3-d]pyrimidin]-6′(7′H)-one], the IC50 on CDK2/CyclinE1 stood at 44 nM; on CDK1/CyclinB1, 4120 nM; against CDK4/cyclinD1, 7580 nM; at CDK6/cyclinD3 it was 9160 nM.
Taken in the same sequence, the figures for `O=C1N([C@@H]2CCC[C@@H](O)C2)c2nc(Nc3c[nH]nc3OCC3CC3)ncc2C12CC2` [Example 38, 2′-((3-(cyclopropylmethoxy)-1H-pyrazol-4-yl)amino)-7′-((1R,3R)-3-hydroxycyclohexyl)spiro[cyclopropane-1,5′-pyrrolo[2,3-d]pyrimidin]-6′(7′H)-one] were 8 nM, 1040 nM, 6100 nM and 9200 nM.
Taken in the same sequence, the figures for `O=C1N([C@@H]2CCC[C@@H](O)C2)c2nc(Nc3c[nH]nc3-c3cnn4ccncc34)ncc2C12CC2` [Example 64, 7′-((1R,3R)-3-hydroxycyclohexyl)-2′-((3-(pyrazolo[1,5-a]pyrazin-3-yl)-1H-pyrazol-4-yl)amino)spiro[cyclopropane-1,5′-pyrrolo[2,3-d]pyrimidin]-6′(7′H)-one] were 12 nM, 2190 nM, 4700 nM and 6490 nM.
The like results for `O=C1N([C@@H]2CCC[C@@H](O)C2)c2nc(Nc3c[nH]nc3C3CCCCO3)ncc2C12CC2` (stereo partly drawn) [Example 10, 7′-((1R,3R)-3-hydroxycyclohexyl)-2′-((3-(tetrahydro-2H-pyran-2-yl)-1H-pyrazol-4-yl)amino)spiro[cyclopropane-1,5′-pyrrolo[2,3-d]pyrimidin]-6′(7′H)-one] were, in that order, 1220 nM, at least 10000 nM, at least 10000 nM and at least 10000 nM.
In the case of `N#Cc1n[nH]cc1Nc1ncc2c(n1)N([C@@H]1CCC[C@@H](O)C1)C(=O)C21CC1` [Example 20, 4-((7′-((1R,3R)-3-hydroxycyclohexyl)-6′-oxo-6′,7′-dihydrospiro[cyclopropane-1,5′-pyrrolo[2,3-d]pyrimidin]-2′-yl)amino)-1H-pyrazole-3-carbonitrile], the 50% inhibitory concentration (IC50) at CDK2/CyclinE1 turned out to be 8 nM; against CDK1/CyclinB1 it was 660 nM; against CDK4/cyclinD1 it was 2160 nM; against CDK6/cyclinD3 it was 2660 nM.
The like results for `COCCn1cc(Nc2ncc3c(n2)N([C@@H]2CCC[C@@H](O)C2)C(=O)C32CC2)cn1` [Example 16, 7′-((1R,3R)-3-hydroxycyclohexyl)-2′-((1-(2-methoxyethyl)-1H-pyrazol-4-yl)amino)spiro[cyclopropane-1,5′-pyrrolo[2,3-d]pyrimidin]-6′(7′H)-one] were, in that order, 49 nM, 2360 nM, 1230 nM and 1800 nM.
The like results for `O=C1N([C@@H]2CCC[C@@H](O)C2)c2nc(Nc3c[nH]nc3O[C@@H]3COC[C@H]3F)ncc2C12CC2` [Example 24, 2′-((3-(((3R,4R)-4-fluorotetrahydrofuran-3-yl)oxy)-1H-pyrazol-4-yl)amino)-7′-((1R,3R)-3-hydroxycyclohexyl)spiro[cyclopropane-1,5′-pyrrolo[2,3-d]pyrimidin]-6′(7′H)-one] were, in that order, 12 nM, 2020 nM, 3910 nM and at least 10000 nM.

By IC50 is commonly meant the midpoint of a concentration-inhibition curve.

Source of the values: US20240360137A1 (Novartis AG, priority 2023, published 2024).
